Reference: ChEMBL document CHEMBL3758169, “4-Aminoindazolyl-dihydrofuro[3,4-d]pyrimidines as non-covalent inhibitors of mutant epidermal growth factor receptor tyrosine kinase” (Bioorg Med Chem Lett, 2016)

Experiments:
[1] = target: Tyrosine-protein kinase receptor TYRO3 (Homo sapiens) (UniProt Q06418); experiment: Inhibition of RSE (unknown origin) at 100 nM
[2] = target: Serine/threonine-protein kinase Sgk1 (Homo sapiens) (UniProt O00141); experiment: Inhibition of SGK1 (unknown origin) at 100 nM
[3] = target: MAP kinase-interacting serine/threonine-protein kinase 1 (Homo sapiens) (UniProt Q9BUB5); experiment: Inhibition of MKNK1 (unknown origin) at 100 nM
[4] = target: Ephrin type-A receptor 4 (Homo sapiens) (UniProt P54764); experiment: Inhibition of EPHA4 (unknown origin) at 100 nM
Chain of Ephrin type-A receptor 4 (Homo sapiens) (P54764 whole entry, the tested form may be a part): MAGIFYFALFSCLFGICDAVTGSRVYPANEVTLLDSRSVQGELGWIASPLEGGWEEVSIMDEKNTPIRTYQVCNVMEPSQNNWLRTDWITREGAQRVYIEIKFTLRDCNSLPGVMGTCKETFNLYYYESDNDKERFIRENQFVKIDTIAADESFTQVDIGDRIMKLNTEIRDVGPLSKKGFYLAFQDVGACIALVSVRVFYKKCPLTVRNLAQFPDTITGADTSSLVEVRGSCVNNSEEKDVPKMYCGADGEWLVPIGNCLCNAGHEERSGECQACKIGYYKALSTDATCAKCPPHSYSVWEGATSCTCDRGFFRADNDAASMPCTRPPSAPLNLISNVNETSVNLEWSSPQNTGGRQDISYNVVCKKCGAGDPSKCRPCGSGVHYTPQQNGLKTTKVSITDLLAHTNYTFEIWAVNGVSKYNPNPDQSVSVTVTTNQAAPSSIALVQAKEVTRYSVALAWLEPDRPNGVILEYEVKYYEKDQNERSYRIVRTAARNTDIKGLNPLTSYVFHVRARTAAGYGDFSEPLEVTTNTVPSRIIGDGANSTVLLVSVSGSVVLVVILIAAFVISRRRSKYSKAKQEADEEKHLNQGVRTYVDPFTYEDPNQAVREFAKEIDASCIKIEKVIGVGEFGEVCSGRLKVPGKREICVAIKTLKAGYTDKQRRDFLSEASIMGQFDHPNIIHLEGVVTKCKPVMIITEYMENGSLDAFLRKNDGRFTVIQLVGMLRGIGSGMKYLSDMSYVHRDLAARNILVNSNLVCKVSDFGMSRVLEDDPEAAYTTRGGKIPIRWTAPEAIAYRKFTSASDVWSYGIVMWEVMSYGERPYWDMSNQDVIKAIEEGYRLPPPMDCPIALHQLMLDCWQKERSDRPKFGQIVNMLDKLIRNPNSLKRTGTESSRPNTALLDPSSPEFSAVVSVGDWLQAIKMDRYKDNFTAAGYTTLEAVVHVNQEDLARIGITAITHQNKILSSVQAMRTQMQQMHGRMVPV

[5] = target: PAS domain-containing serine/threonine-protein kinase (Homo sapiens) (UniProt Q96RG2); experiment: Inhibition of PASK (unknown origin) at 100 nM
[6] = target: MAP kinase-activated protein kinase 3 (Homo sapiens) (UniProt Q16644); experiment: Inhibition of MAPKAPK3 (unknown origin) at 100 nM
Chain of MAP kinase-activated protein kinase 3 (Homo sapiens) (Q16644 whole entry, looked up): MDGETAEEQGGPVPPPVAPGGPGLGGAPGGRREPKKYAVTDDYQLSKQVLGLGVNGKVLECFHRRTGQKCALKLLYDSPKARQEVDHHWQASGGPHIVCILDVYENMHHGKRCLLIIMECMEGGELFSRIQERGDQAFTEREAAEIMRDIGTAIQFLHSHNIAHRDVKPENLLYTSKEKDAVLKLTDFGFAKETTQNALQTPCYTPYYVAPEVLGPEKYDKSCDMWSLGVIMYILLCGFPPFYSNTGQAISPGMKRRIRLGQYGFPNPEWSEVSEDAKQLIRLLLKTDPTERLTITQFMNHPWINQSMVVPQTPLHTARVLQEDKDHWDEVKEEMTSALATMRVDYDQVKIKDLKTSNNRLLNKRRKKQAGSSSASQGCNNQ

[7] = target: Calcium/calmodulin-dependent protein kinase type 1 (Homo sapiens) (UniProt Q14012); experiment: Inhibition of CaMKI (unknown origin) at 100 nM
Chain of Calcium/calmodulin-dependent protein kinase type 1 (Homo sapiens) (Q14012 whole entry, looked up): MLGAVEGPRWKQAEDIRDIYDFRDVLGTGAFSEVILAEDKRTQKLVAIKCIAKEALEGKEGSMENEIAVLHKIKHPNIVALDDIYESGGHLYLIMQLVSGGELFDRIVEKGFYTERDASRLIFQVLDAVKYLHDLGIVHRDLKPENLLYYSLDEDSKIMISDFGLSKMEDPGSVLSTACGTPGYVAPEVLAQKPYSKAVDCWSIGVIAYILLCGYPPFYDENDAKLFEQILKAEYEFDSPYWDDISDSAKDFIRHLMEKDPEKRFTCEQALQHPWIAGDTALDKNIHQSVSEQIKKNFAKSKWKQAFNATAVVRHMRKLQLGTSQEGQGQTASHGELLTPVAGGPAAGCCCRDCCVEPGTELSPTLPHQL

[8] = target: Protein kinase C beta type (Homo sapiens) (UniProt P05771); experiment: Inhibition of PKCbeta2 (unknown origin) at 100 nM
[9] = target: Proto-oncogene tyrosine-protein kinase Src (Homo sapiens) (UniProt P12931); experiment: Inhibition of SRCN1 (unknown origin) at 100 nM
Chain of Proto-oncogene tyrosine-protein kinase Src (Homo sapiens) (P12931 whole entry, looked up): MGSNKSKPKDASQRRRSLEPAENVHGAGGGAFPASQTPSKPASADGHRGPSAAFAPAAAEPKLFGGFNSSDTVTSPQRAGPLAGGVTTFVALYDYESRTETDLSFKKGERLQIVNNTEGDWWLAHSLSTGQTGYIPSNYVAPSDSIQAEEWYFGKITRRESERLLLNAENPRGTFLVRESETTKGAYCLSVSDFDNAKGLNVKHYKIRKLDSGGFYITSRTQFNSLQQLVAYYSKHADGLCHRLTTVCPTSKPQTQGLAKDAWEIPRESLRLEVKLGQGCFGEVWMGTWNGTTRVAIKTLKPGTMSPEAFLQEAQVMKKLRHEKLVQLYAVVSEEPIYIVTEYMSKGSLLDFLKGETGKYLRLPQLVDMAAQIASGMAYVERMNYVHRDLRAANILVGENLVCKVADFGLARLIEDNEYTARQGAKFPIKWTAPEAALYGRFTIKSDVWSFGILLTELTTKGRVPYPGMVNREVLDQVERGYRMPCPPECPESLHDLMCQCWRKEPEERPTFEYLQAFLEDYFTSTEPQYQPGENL

[10] = target: Serine/threonine-protein kinase PLK2 (Homo sapiens) (UniProt Q9NYY3); experiment: Inhibition of PLK2 (unknown origin) at 100 nM
[11] = target: RAC-beta serine/threonine-protein kinase (Homo sapiens) (UniProt P31751); experiment: Inhibition of AKT2 (unknown origin) at 100 nM
Chain of RAC-beta serine/threonine-protein kinase (Homo sapiens) (P31751 whole entry): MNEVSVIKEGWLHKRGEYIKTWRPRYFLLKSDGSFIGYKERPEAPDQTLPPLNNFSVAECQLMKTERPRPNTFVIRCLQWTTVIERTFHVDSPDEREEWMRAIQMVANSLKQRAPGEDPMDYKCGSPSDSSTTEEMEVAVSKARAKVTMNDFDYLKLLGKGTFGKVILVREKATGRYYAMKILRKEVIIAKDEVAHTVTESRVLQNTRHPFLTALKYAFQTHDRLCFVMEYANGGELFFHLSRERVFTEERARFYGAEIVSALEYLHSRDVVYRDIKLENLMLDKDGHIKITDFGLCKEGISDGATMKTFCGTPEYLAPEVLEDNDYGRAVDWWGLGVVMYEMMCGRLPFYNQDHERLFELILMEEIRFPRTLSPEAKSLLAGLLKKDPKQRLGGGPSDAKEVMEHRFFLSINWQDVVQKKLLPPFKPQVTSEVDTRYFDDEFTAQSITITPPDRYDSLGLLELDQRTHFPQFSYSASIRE

[12] = target: Tyrosine-protein kinase TXK (Homo sapiens) (UniProt P42681); experiment: Inhibition of TXK (unknown origin) at 100 nM
[13] = target: Mitogen-activated protein kinase 14 (Homo sapiens) (UniProt Q16539); experiment: Inhibition of p38alpha (unknown origin) at 100 nM
Chain of Mitogen-activated protein kinase 14 (Homo sapiens) (Q16539 whole entry): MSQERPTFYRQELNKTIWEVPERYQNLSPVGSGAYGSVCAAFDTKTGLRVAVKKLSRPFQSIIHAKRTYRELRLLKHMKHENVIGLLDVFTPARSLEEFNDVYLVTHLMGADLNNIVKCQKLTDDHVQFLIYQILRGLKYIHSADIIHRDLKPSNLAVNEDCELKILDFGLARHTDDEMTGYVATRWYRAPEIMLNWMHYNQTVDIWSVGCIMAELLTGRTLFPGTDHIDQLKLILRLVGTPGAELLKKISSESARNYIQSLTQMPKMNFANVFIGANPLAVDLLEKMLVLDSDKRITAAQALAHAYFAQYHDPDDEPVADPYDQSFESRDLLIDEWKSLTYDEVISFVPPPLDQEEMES

[14] = target: Serine/threonine-protein kinase 4 (Homo sapiens) (UniProt Q13043); experiment: Inhibition of MST1 (unknown origin) at 100 nM
[15] = target: Ribosomal protein S6 kinase alpha-2 (Homo sapiens) (UniProt Q15349); experiment: Inhibition of RSK3 (unknown origin) at 100 nM
Chain of Ribosomal protein S6 kinase alpha-2 (Homo sapiens) (Q15349 whole entry): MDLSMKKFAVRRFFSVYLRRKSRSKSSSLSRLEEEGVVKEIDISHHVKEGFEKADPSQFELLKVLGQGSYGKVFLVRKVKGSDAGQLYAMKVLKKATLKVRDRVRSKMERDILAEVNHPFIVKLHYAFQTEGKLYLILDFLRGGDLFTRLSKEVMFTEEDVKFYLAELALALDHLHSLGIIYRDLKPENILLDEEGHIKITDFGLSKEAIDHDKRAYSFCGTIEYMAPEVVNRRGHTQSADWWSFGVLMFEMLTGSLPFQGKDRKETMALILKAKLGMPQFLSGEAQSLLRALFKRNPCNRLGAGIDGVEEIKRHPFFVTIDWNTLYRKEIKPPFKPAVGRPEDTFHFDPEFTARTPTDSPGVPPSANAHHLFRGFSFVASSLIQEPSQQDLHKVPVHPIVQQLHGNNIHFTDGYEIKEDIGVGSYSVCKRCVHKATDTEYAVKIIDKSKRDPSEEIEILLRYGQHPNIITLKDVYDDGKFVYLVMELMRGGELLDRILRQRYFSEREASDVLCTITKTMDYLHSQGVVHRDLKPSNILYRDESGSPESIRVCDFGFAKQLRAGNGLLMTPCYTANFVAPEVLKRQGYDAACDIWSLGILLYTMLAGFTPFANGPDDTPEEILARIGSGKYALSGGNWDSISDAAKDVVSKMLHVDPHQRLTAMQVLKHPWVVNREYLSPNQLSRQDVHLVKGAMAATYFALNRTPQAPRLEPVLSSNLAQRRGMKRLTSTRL

Chain of Tyrosine-protein kinase receptor TYRO3 (Homo sapiens) (Q06418 whole entry): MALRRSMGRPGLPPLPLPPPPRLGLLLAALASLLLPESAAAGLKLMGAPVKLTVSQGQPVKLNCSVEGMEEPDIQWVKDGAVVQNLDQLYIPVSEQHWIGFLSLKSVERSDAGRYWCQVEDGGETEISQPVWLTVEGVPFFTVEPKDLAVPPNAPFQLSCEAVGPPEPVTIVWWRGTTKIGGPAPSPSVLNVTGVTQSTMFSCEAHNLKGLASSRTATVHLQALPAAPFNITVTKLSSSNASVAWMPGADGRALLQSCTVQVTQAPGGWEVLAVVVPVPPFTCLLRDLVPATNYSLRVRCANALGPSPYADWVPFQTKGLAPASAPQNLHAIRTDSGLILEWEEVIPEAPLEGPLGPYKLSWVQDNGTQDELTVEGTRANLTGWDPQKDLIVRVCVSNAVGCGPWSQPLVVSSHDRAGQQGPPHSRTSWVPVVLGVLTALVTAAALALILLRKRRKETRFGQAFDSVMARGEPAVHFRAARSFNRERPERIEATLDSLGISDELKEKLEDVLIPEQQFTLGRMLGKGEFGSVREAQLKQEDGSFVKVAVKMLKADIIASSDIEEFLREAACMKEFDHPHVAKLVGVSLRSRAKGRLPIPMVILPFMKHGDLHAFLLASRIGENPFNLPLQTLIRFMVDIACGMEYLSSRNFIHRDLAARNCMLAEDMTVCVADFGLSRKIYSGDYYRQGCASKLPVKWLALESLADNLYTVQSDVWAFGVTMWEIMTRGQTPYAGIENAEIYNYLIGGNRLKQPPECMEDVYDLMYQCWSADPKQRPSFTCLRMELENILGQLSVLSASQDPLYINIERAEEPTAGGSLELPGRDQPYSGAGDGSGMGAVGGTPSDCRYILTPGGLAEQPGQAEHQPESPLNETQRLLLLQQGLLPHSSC

inhibition [1]: 5.8% | inhibition [2]: -5.2% | inhibition [3]: 2.3% | inhibition [4]: 23.1% | inhibition [5]: 1.2% | inhibition [6]: 5.4% | inhibition [7]: 4.5% | inhibition [8]: 11.4% | inhibition [9]: 47.2% | inhibition [10]: 5.5% | inhibition [11]: 8.8% | inhibition [12]: 61.5% | inhibition [13]: 44.5% | inhibition [14]: 13.1% | inhibition [15]: 7.4%
SMILES: CC1(C)OCc2c(Nc3n[nH]c4ccccc34)nc(-c3cn[nH]c3)nc21
